Data as given in paper doi:10.1101/2024.08.19.608619, “Discovery of potent SARS-CoV-2 nsp3 macrodomain inhibitors uncovers lack of translation to cellular antiviral response” (bioRxiv, 2024).
Read-outs that look alike come from different tables or passages of the source.

What was measured:
Experiment in all cases: biochemical
Set-up in all cases: In vitro kinase panel profiling, per cent remaining kinase activity at 10 uM
[1] = biological target: T1, PI3 Kinase (p110β/p85α)(h) (Homo sapiens, UniProt P42338); conditions: atp_concentration=200, read-out: % of control remaining
T1 construct: gene PIK3CB
Source text: (§1) We derisk potential for off-target activity by profiling the compound in a CEREP panel, a standard secondary pharmacology assessment, as well as a kinase panel to derisk a potential hinge-binding motif in our leads, and a PARP panel to derisk activity against human […]. Reassuringly, the compounds are selective, with the only off-targets being moderate human CHRM2 and KOR receptors activity associated with ASAP-0011198.

PKBα(h) = biological target: T2, PKBα(h) (Homo sapiens, UniProt P31749); conditions: atp_concentration=155, read-out: % of control remaining
T2 construct: gene AKT1
Source text: as §1

PI3 Kinase (p120γ)(h) = biological target: T3, PI3 Kinase (p120γ)(h) (Homo sapiens, UniProt P48736); conditions: atp_concentration=100, read-out: % of control remaining
T3 construct: gene PIK3CG
Source text: as §1

GSK3β(h) = biological target: T4, GSK3β(h) (Homo sapiens, UniProt P49841); conditions: atp_concentration=15, read-out: % of control remaining
T4 construct: gene GSK3B
Source text: as §1

EGFR(h) = EGFR(h) (Homo sapiens, UniProt P00533); conditions: atp_concentration=10, read-out: % of control remaining
Source text: as §1

CaMKI(h) = biological target: T5, CaMKI(h) (Homo sapiens, UniProt Q14012); conditions: atp_concentration=200, read-out: % of control remaining
T5 construct: gene CAMK1
Source text: as §1

p70S6K(h) = biological target: T6, p70S6K(h) (Homo sapiens, UniProt P23443); conditions: atp_concentration=15, read-out: % of control remaining
T6 construct: gene RPS6KB1
Source text: as §1

MST1(h) = biological target: T7, MST1(h) (Homo sapiens, UniProt Q13043); conditions: atp_concentration=90, read-out: % of control remaining
T7 construct: gene STK4
T7 sequence (Q13043 1-487): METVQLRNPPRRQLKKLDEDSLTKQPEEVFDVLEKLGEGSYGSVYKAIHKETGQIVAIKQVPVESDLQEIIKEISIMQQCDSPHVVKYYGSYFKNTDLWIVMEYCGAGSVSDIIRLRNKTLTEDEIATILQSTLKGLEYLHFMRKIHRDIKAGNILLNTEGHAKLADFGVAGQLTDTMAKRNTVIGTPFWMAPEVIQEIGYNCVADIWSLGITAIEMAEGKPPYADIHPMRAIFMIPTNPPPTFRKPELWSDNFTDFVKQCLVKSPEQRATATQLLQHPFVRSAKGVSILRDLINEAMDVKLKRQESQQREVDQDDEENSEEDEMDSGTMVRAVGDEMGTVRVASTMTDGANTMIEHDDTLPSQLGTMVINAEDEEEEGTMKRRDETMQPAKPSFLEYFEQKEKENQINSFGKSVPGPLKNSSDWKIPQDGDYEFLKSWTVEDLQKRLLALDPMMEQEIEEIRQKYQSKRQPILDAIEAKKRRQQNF
Source text: as §1

CDK2/cyclinA(h) = CDK2/cyclinA(h) (Homo sapiens, UniProt P24941); conditions: atp_concentration=45, read-out: % of control remaining
Source text: as §1

[2] = biological target: T8, PI3 Kinase (p110δ/p85α)(h) (Homo sapiens, UniProt O00329); conditions: atp_concentration=200, read-out: % of control remaining
T8 construct: gene PIK3CD
Source text: as §1

[3] = biological target: T9, PI3 Kinase (p110α/p85α)(h) (Homo sapiens, UniProt P42336); conditions: atp_concentration=200, read-out: % of control remaining
T9 construct: gene PIK3CA
Source text: as §1

Fyn(h) = Fyn(h) (Homo sapiens, UniProt P06241); conditions: atp_concentration=70, read-out: % of control remaining
Source text: as §1

MLK1(h) = biological target: T10, MLK1(h) (Homo sapiens, UniProt P80192); conditions: atp_concentration=45, read-out: % of control remaining
T10 construct: gene MAP3K9
Source text: as §1

CDK1/cyclinB(h) = CDK1/cyclinB(h) (Homo sapiens, UniProt P06493); conditions: atp_concentration=45, read-out: % of control remaining
Source text: as §1

SAPK2a(h) = biological target: T11, SAPK2a(h) (Homo sapiens, UniProt Q16539); conditions: atp_concentration=90, read-out: % of control remaining
T11 construct: gene MAPK14
Source text: as §1

mTOR(h) = mTOR(h) (Homo sapiens, UniProt P42345); conditions: atp_concentration=70, read-out: % of control remaining
Source text: as §1

IGF-1R(h) = biological target: T12, IGF-1R(h) (Homo sapiens, UniProt P08069); conditions: atp_concentration=200, read-out: % of control remaining
T12 construct: gene IGF1R
Source text: as §1

KDR(h) = KDR(h) (Homo sapiens, UniProt P35968); conditions: atp_concentration=90, read-out: % of control remaining
Source text: as §1

T1 sequence (P42338 whole entry): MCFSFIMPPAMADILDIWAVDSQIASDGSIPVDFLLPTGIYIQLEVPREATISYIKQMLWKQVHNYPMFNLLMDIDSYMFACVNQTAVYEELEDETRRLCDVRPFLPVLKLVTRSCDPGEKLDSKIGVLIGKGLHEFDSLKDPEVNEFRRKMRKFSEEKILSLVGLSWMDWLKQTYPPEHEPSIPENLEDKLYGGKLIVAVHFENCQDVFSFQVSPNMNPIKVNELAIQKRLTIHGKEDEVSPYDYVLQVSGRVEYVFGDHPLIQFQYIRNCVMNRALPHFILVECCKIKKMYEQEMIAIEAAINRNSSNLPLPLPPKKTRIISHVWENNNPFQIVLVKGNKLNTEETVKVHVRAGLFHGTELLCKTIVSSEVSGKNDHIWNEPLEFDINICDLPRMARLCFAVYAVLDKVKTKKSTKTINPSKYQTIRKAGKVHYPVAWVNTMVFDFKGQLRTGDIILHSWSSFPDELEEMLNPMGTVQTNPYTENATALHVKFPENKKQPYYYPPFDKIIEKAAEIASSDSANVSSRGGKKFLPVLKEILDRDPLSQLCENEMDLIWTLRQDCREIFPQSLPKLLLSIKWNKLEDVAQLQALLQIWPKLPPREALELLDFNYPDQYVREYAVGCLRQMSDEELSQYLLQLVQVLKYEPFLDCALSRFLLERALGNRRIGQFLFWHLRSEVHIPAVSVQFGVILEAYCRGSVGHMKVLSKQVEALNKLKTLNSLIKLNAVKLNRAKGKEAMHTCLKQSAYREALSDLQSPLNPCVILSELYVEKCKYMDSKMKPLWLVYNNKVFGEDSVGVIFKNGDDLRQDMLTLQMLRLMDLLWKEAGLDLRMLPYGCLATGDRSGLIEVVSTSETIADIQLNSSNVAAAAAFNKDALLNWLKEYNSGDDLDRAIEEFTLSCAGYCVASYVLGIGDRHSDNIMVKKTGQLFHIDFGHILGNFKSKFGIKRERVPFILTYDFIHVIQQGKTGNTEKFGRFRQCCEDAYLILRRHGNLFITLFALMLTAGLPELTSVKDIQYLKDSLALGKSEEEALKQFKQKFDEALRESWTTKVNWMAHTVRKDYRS
T1 sequence (P27986 whole entry partner): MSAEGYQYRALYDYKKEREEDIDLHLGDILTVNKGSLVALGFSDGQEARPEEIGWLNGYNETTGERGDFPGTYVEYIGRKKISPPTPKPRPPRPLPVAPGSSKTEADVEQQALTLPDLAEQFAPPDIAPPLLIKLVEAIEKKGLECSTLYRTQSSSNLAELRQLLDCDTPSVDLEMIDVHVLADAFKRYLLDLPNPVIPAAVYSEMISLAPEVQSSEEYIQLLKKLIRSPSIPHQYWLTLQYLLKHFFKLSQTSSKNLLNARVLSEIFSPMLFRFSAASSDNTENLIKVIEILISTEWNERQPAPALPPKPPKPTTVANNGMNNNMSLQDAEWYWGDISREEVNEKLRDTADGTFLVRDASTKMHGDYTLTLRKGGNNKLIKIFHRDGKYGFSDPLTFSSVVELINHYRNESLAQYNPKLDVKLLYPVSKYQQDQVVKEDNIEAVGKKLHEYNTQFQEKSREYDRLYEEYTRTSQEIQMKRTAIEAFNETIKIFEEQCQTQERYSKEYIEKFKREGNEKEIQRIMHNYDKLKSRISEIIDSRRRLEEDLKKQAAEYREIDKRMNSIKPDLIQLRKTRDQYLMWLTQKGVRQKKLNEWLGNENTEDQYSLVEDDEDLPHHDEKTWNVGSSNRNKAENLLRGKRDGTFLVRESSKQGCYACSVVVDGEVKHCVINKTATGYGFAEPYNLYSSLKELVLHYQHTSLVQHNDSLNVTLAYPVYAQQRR
CDK1/cyclinB(h), sequence (P06493 whole entry): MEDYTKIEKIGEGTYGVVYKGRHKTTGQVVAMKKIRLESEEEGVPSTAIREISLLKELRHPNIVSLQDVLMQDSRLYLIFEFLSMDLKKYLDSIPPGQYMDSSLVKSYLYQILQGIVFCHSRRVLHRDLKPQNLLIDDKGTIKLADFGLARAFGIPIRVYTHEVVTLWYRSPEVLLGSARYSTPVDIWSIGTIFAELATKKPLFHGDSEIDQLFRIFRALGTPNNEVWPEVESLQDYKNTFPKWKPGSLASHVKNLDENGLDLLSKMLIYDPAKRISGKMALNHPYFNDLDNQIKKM
CDK1/cyclinB(h), sequence (P14635 whole entry partner): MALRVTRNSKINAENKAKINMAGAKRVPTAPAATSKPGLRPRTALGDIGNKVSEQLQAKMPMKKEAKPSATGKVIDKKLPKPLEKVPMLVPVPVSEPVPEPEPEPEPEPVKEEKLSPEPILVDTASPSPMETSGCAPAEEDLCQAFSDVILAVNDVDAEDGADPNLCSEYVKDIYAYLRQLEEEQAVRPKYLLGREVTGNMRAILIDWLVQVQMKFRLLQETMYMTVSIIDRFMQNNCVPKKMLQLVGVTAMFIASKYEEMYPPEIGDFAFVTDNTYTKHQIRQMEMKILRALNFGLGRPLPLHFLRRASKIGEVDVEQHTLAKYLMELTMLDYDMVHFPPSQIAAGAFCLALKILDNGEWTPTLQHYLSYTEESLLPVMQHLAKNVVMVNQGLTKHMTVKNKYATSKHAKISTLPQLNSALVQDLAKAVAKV
T3 sequence (P48736 whole entry): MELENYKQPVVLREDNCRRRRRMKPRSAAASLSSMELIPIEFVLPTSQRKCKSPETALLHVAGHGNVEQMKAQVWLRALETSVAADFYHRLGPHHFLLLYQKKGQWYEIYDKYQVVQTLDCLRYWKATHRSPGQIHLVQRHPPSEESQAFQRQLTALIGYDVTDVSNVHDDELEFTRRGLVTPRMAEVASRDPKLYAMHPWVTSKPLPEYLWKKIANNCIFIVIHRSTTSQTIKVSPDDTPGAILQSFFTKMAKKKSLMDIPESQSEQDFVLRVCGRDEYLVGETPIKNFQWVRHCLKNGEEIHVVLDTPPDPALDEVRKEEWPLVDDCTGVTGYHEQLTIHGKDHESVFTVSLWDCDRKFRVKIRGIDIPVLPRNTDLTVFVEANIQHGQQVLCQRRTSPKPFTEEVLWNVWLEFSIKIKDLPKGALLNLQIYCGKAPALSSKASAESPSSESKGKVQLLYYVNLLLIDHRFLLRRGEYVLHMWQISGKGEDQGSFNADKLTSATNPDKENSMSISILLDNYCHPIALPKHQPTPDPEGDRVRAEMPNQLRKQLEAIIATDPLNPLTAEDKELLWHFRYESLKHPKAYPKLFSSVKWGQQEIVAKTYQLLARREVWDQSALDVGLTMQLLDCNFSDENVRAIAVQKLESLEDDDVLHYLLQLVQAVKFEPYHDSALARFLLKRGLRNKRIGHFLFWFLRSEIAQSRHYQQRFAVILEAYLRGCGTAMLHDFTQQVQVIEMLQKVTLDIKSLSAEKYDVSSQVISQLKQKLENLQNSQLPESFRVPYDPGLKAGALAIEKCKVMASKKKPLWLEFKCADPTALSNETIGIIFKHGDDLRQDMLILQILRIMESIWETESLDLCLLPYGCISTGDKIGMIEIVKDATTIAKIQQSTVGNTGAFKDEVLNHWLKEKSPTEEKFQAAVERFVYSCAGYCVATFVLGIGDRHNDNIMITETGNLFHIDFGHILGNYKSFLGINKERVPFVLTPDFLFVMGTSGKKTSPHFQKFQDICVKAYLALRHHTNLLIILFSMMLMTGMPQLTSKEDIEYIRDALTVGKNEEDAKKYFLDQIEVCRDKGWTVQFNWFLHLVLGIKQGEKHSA
T10 sequence (P80192 whole entry): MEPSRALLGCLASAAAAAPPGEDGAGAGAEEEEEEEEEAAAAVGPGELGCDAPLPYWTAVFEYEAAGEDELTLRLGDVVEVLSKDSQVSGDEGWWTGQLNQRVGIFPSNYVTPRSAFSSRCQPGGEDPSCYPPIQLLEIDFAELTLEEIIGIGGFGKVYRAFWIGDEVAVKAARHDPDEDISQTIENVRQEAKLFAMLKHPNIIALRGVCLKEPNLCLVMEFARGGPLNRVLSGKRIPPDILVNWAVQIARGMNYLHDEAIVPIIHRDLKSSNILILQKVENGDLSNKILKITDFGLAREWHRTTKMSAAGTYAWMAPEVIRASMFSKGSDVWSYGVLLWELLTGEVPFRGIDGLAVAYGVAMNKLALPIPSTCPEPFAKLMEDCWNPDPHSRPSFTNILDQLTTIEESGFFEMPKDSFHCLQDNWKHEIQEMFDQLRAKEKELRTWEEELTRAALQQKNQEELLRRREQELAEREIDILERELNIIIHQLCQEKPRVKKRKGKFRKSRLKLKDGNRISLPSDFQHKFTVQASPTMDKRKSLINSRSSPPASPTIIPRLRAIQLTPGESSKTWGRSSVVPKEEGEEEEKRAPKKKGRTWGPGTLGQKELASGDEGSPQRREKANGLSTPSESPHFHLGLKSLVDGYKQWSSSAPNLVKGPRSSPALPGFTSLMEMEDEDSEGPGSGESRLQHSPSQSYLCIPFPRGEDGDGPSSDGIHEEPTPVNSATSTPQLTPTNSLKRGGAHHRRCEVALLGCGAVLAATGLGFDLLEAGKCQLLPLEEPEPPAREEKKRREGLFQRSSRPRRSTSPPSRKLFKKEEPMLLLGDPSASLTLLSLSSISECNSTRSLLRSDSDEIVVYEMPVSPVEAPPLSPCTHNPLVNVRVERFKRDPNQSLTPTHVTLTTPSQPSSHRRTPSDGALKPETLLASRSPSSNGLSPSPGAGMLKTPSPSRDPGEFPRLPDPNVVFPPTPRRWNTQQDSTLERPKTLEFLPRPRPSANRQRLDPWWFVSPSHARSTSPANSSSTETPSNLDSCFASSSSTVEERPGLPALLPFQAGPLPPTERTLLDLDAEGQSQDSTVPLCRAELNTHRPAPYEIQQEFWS

Molecule C[C@H](C(=O)O)[C@@H](NC(=O)c1ncnc2[nH]ccc12)c1ccc(Br)cc1 [ASAP-0014722] has a remaining activity at 10 µM ([1]; batch_name=ASAP-0014722-002) of 97%, a remaining activity at 10 µM (PKBα(h); batch_name=ASAP-0014722-002) of 95% and a remaining activity at 10 µM (PI3 Kinase (p120γ)(h); batch_name=ASAP-0014722-002) of 97%. It also gave a remaining activity at 10 µM (GSK3β(h); batch_name=ASAP-0014722-002) of 93%, a remaining activity at 10 µM (EGFR(h); batch_name=ASAP-0014722-002) of 93% and a remaining activity at 10 µM (CaMKI(h); batch_name=ASAP-0014722-002) of 101%. It also gave a remaining activity at 10 µM (p70S6K(h); batch_name=ASAP-0014722-002) of 97%, a remaining activity at 10 µM (MST1(h); batch_name=ASAP-0014722-002) of 121% and a remaining activity at 10 µM (CDK2/cyclinA(h); batch_name=ASAP-0014722-002) of 102%. For the same molecule, the remaining activity at 10 µM ([2]; batch_name=ASAP-0014722-002) was 97%, the remaining activity at 10 µM ([3]; batch_name=ASAP-0014722-002) was 100% and the remaining activity at 10 µM (Fyn(h); batch_name=ASAP-0014722-002) was 98%. It also gave a remaining activity at 10 µM (MLK1(h); batch_name=ASAP-0014722-002) of 86%, a remaining activity at 10 µM (CDK1/cyclinB(h); batch_name=ASAP-0014722-002) of 92% and a remaining activity at 10 µM (SAPK2a(h); batch_name=ASAP-0014722-002) of 103%. It also gave a remaining activity at 10 µM (mTOR(h); batch_name=ASAP-0014722-002) of 100%, a remaining activity at 10 µM (IGF-1R(h); batch_name=ASAP-0014722-002) of 95% and a remaining activity at 10 µM (KDR(h); batch_name=ASAP-0014722-002) of 77%.

COc1ccc([C@H](Cc2nnn[nH]2)NC(=O)c2ncnc3[nH]ccc23)cc1 [ASAP-0015381] was tested, and the remaining activity at 10 µM ([1]; batch_name=ASAP-0015381-001) was 97%, the remaining activity at 10 µM (PKBα(h); batch_name=ASAP-0015381-001) was 97% and the remaining activity at 10 µM (PI3 Kinase (p120γ)(h); batch_name=ASAP-0015381-001) was 88%. For the same molecule, the remaining activity at 10 µM (GSK3β(h); batch_name=ASAP-0015381-001) was 90%, the remaining activity at 10 µM (EGFR(h); batch_name=ASAP-0015381-001) was 97% and the remaining activity at 10 µM (CaMKI(h); batch_name=ASAP-0015381-001) was 103%. The remaining activity at 10 µM (p70S6K(h); batch_name=ASAP-0015381-001) was 113%, the remaining activity at 10 µM (MST1(h); batch_name=ASAP-0015381-001) was 127% and the remaining activity at 10 µM (CDK2/cyclinA(h); batch_name=ASAP-0015381-001) was 113%. The remaining activity at 10 µM ([2]; batch_name=ASAP-0015381-001) was 97%, the remaining activity at 10 µM ([3]; batch_name=ASAP-0015381-001) was 99% and the remaining activity at 10 µM (Fyn(h); batch_name=ASAP-0015381-001) was 102%. For the same molecule, the remaining activity at 10 µM (MLK1(h); batch_name=ASAP-0015381-001) was 87%, the remaining activity at 10 µM (CDK1/cyclinB(h); batch_name=ASAP-0015381-001) was 98% and the remaining activity at 10 µM (SAPK2a(h); batch_name=ASAP-0015381-001) was 103%. For the same molecule, the remaining activity at 10 µM (mTOR(h); batch_name=ASAP-0015381-001) was 97%, the remaining activity at 10 µM (IGF-1R(h); batch_name=ASAP-0015381-001) was 103% and the remaining activity at 10 µM (KDR(h); batch_name=ASAP-0015381-001) was 97%.
